In PubChem BioAssay AID1902 (Broad Institute, 2009):
Activity calls are given as the source filed them.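 Rule for the calls: active = EC50 no more than a set limit of log units above the highest dose; inactive = the rest.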

biological target: S. pyogenes SKKanGAS, kanamycin survival, BacTiterGlo, 6 h; experiment: S. pyogenes SKKanGAS kanamycin growth inhibitors – SKKanGAS strain, luminescence, dose confirmation, streptokinase promoter inhibitor project, dose response (AID 1902);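 note: lower survival reflects blocked streptokinase promoter driving kanamycin resistance gene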

In order of rising EC50:
1. COc1ccc(-c2nnc(NC(=O)c3ccc(S(=O)(=O)N4CCCc5ccccc54)cc3)o2)cc1  149 nM
2. CC(/C=C1\SC(=S)N(CCCC(=O)Nc2ccc(C(=O)O)cc2)C1=O)=C\c1ccccc1  190 nM
3. Oc1cccc2ccc(/C=C/c3ccccc3Cl)nc12  248 nM
4. COC(=O)C1N2C(=O)[C@@H](NC(=O)COc3ccccc3)[C@H]2SC1(C)C (some centres undefined)  377 nM
5. O=C(CCn1cnc(-c2ccccc2)c1-c1ccccc1)N/N=C/c1ccccc1O  522 nM
6. O=C(Nc1nc(-c2ccccn2)cs1)c1ncc(Cl)c(Cl)c1Cl  771 nM
7. Cc1nc(N)nc(N)c1CCCc1ccc(Cl)c(Cl)c1  870 nM
8. Cc1ccc(C(=O)NNC(=S)NC(=O)c2ccco2)cc1  905 nM
9. CC(=O)OCC1=C(C(=O)O)N2C(=O)C(NC(=O)CCn3nc(C)c(Cl)c3C)C2SC1 (centres undefined)  1020 nM
10. O=C(/C=C/c1ccco1)Oc1cc(Br)cc(/C=N/NC(=O)c2ccccc2O)c1  1110 nM
11. COc1cccc2c1C(=O)c1c(O)c3c(c(O)c1C2=O)C[C@@](O)(C(=O)CO)C[C@@H]3O[C@H]1C[C@H](N)[C@H](O)[C@H](C)O1  1150 nM
12. CC(C)=CCC12Oc3cc(O)ccc3C1(O)Oc1cc(O)c([C@H]3C=C(C)CC(c4ccc(O)cc4O)[C@H]3C(=O)c3ccc(O)cc3O)c(O)c1C2=O (some centres undefined)  1210 nM
13. O=C(Nc1cccc(S(=O)(=O)Nc2ccc(Cl)cc2)c1)c1cc2c(s1)CCCC2  1300 nM
14. Cc1nn(-c2ccccc2)c(Cl)c1C1C(C#N)=C(N)OC2=C1C(=O)CC(C)(C)C2 (centres undefined)  1450 nM
15. Cc1[nH]c2ccccc2c1C(=O)COC(=O)c1ccc2c(=O)n3c(nc2c1)CCC3  1520 nM
16. CCOc1c(OC(C)=O)ccc(/C=C/c2ccc3cccc(OC(C)=O)c3n2)c1[N+](=O)[O-]  1600 nM
17. O=C(Nc1nnc(C2=COCCO2)o1)c1cccc(C(F)(F)F)c1  1730 nM
18. O=[N+]([O-])c1ccc(NC(=S)NCCc2ccc(Cl)cc2)cc1  1730 nM
19. N=C1/C(=C/c2cccs2)C(=O)N=C2SN=C(SCc3ccccc3)N12  1830 nM
20. Cc1ccc(C(c2cc(Cl)c3cccnc3c2O)N2CCN(C)CC2)cc1 (centres undefined)  1840 nM
21. COc1c(CC=C(C)C)cc(C2CC(=O)c3c(O)cc(O)cc3O2)c(CC=C(C)C)c1O (centres undefined)  1870 nM
22. Oc1ccc(Br)cc1/C=N/NC(=S)NCCc1ccccc1  1930 nM
23. Nc1[nH]n2c(=O)cc(-c3ccccc3)nc2c1N=Nc1ccc2c(c1)OCO2  2250 nM
24. COc1ccc(-c2cn[nH]c2-c2ccc(OCc3ccccc3)cc2O)cc1  2380 nM
25. CC(C)=CCC12Oc3cc(O)ccc3C1(O)Oc1cc3c(c(O)c1C2=O)C=CC(C)(C)O3 (centres undefined)  2400 nM
26. CC1=C/C(=N\NC(=S)NCCc2ccccc2)CC(C)(C)C1  2580 nM
27. C#C[C@]1(O)CC[C@H]2[C@@H]3CCc4cc(OC5CCCC5)ccc4[C@H]3CC[C@@]21C  2600 nM
28. COc1cc([N+](=O)[O-])cc(/C=N/NC(=O)c2ccc(C)nc2)c1O  2610 nM
29. Fc1ccc2nc(Nc3nc4cc5c(cc4s3)OCO5)sc2c1  2630 nM
30. CCC(=C/c1sc2ccc3ccccc3c2[n+]1C)/C=C1\Sc2ccc3ccccc3c2N1C  2670 nM
31. CC1CCN(Cc2c(C(=O)N/N=C/c3cc(Cl)ccc3O)nnn2-c2nonc2N)CC1  2670 nM
32. Cc1oc(C(C)(C)C)cc1C(=O)N1CCN(C(c2ccccc2)c2ccccc2)CC1  2890 nM
33. O=C(Cc1cccs1)N/N=C/c1ccco1  2900 nM
34. O=[N+]([O-])c1cccnc1N1CCC(c2cc(-c3ccc(Cl)cc3)n[nH]2)CC1  2960 nM
35. Cc1nn(-c2ccccc2)c(Cl)c1/C=C1\SC(=S)N(CCCCCC(=O)O)C1=O  3040 nM
36. C/C(=N\NC(=O)c1cccc2ccccc12)c1ccccn1  3260 nM
37. COc1ccc(C2=NOC(CNC(N)=S)C2)cc1 (centres undefined)  3410 nM
38. Cc1ccc(C(=O)/C=C/C(=O)c2ccc(C)cc2)cc1  3610 nM
39. N#CCSc1nc2ccc(N3CCOCC3)cc2c(=O)n1CCc1ccccc1  3710 nM
40. Cc1[nH]cnc1C(=O)N/N=C/c1ccc([N+](=O)[O-])s1  3730 nM
41. CC[n+]1c(/C=C2\Sc3ccccc3N2C)ccc2cccc(C)c21  3840 nM
42. CCn1cnc2sc(C(=O)Oc3cccc(C)c3)c(C)c2c1=O  4080 nM
43. O=C(Nc1cccc(-c2csc(Nc3cccc(C(F)(F)F)c3)n2)c1)c1ccccc1  4330 nM
44. COc1cccc(N2CCN(c3ncnc4c3[nH]c3ccc(F)cc34)CC2C)c1 (centres undefined)  6850 nM
45. CCOC(=O)C1=C(C)N=c2s/c(=C\c3ccc(O)c([N+](=O)[O-])c3)c(=O)n2C1c1ccccc1OC (centres undefined)  6900 nM
46. Clc1ccc2nc(-c3ccccn3)c(Nc3ccc4c(c3)OCO4)n2c1  6990 nM
47. Cc1cccc(CC(Cc2nc3ccccc3[nH]2)c2nc3ccccc3[nH]2)c1 (centres undefined)  9880 nM
48. Brc1ccc(C2C3=C(Nc4ncnn42)c2ccccc2OC3c2ccncc2)cc1 (centres undefined)  10100 nM
49. CCOc1ccccc1NC(=O)c1nc(S(=O)(=O)Cc2cccc(C)c2)ncc1Cl  11100 nM
50. CC1CCN(c2ccccc2NC(=O)c2cc3ccccc3o2)CC1  11700 nM
51. COc1ccc(CNC(=O)Cc2csc(NC(=O)Nc3ccccc3OC)n2)cc1  15000 nM

`N#C/C(=N\Nc1ccc(S(=O)(=O)N2CCOCC2)cc1)C(N)=S` was tested, and the EC50 was > 15000 nM (inactive).
In the case of `COc1ccccc1CN1CC(C(=O)NCc2ncccc2C)CCC1=O` (centres undefined), the EC50 is reported as > 15000 nM (inactive).
In the case of `Cc1cc(C)n(-c2nc(C)nc(NCc3ccccc3)n2)n1`, the EC50 is reported as > 15000 nM (inactive).
